# Assay results published in patent EP0628539B1, “Polyepoxysuccinic acid derivatives and their use for the control of scale formation and corrosion in aqueous systems” (BetzDearborn Europe, Inc., priority 1993, dated 1994).
# Experiments:
# [1] = Static calcium carbonate % inhibition evaluation (EDTA titration of filtrate calcium); settings: 1106 ppm Ca as CaCO3, 1160 ppm CO3 as CaCO3, pH = 9.0, Temp. = 70°C, Duration = 17 hours
# Experimental: Table II summarizes the static calcium carbonate inhibition testing of the compounds of the present invention compared to several prior art calcium carbonate control agents. The tests were performed by adding the treatment solution (sample) to a carbonate stock solution of the described conditions.
# A calcium stock solution was then added and the mixture was incubated for 17 hours at 70°C. All treatments were adjusted to pH 9.0 prior to use and the treatment weights, expressed as the sodium salts, accounted for the presence of disodium tartrate by-product. After cooling, a measured portion of the mixture was filtered and the filtrate pH adjusted to less than 1 with hydrochloric acid. The filtrate was then diluted and pH adjusted to 12 with sodium hydroxide. A calcium indicator, murexide, was then added and the solution titrated with a known concentration of ethylenediaminetetraacetic acid (EDTA). From titrations for the treated, stock and control solutions, the percent inhibition was calculated as follows: % Inhibition =(mls EDTA(treated) - mls EDTA(control))/(mls EDTA(stock) - mls EDTA(control))x 100 [formula]
# [2] = Beaker Corrosion Test Apparatus (BCTA): coupon and probe weight loss, electrochemical corrosion rate; settings: 25 ppm, base treatment 1 ppm HEDP, 10 ppm acrylic copolymer, 15 ppm molybdate (PESA: no HEDP), pH 8.4, 120°F, 40 hours
# Experimental: The corrosion inhibition activity of the present invention was evaluated with a Beaker Corrosion Test Apparatus (BCTA). […] The test solution volume is 1.9 liters.
# Electrochemical corrosion rate data (EC) are obtained during the test from potentiodynamic polarization resistance measurements. Additional corrosion data is obtained from the coupon and the electrochemical probe by standard weight loss measurement techniques. All tests were conducted under the following conditions unless otherwise noted:
# Under these conditions, the test water is supersaturated with respect to calcium carbonate. […] Therefore, all tests were conducted with a base treatment to inhibit the precipitation of calcium carbonate under the test conditions. The blank runs reported for all tests include the addition of the base treatment.
# In all tests, the blank corrosion rates are expressed in mils per year (mpy). The corrosion rates for the inhibitor compounds are expressed as a reduction in the corrosion rate relative to the blank calculated according to the following equation: % Corrosion Inhibition =((mpy Blank - mpy Treated))/(mpy Blank)x 100 [formula]
# All tests were conducted as parts per million of the inhibitor molecule as the sodium salt. Compound αHCA(12) was evaluated as ppm of the free acid.
# A sample of poly[epoxysuccinic acid]
SMILES,Static Calcium Carbonate % Inhibition ([1]; 5 ppm Actives) [%],Static Calcium Carbonate % Inhibition ([1]; 10 ppm Actives) [%],"Percent Corrosion Inhibition, Coupon ([2]; coupon weight loss relative to blank (62.4 mpy)) [%]","Percent Corrosion Inhibition, EC (avg) ([2]; electrochemical corrosion rate relative to blank (47.1 mpy)) [%]","Percent Corrosion Inhibition, Probe ([2]; probe weight loss relative to blank (58.9 mpy)) [%]"
"O=C(O)CCC(CC(=O)O)(C(=O)O)P(=O)(O)O (stereo not drawn) [PBSAM, 2-phosphonobutane - 1,2,4-tricarboxylic acid]",67.5,76.0,–,–,–
"O=C([O-])C(O)[C@H](NCCS(=O)(=O)[O-])C(=O)[O-].[Na+].[Na+].[Na+] (stereo partly drawn) [αHCA(9), aspartic acid, 3-hydroxy, N-[2-ethanesulfonic acid]-trisodium salt]",5.1,3.7,29.3,69.4,66.2
"CC(O)(P(=O)(O)O)P(=O)(O)O [HEDP, 1-hydroxyethylidene-1,1-diphosphonic acid]",73.1,71.3,–,–,–
